{"source": "patent US10772875B2", "about": "“Agents enhancing HuR/ELAV protein levels for use in the treatment of BRAF-mutated cancers” (LES HOPITAUX UNIVERSITAIRES DE GENEVE, priority 2017, dated 2020)", "key": {"HuR in A375 cells": {"tested_on": "HuR in A375 cells", "assay": "Western blot of nuclear and cytoplasmic fractions for HuR expression, A375", "format": "cell-based, human", "conditions": "for HuR cytoplasmic content: C1 5 mM or 1 mM for 6 days, C2 15 μM 24 h", "source_text": "(§1) Some HIV protease inhibitors (such as Nelfinavir) have been used in combination with a BRAF inhibitor to potentiate its effect (Smith et al., 2016, cancer cell, 29(3): 270-284) and some HIV protease inhibitors have (such as Lopinavir) been reported as increasing the cytosolic translocation of HuR (Chen et al., 2009, Biochem Pharmacol., 78(1): 70-77). Further, some polyamine depleting agents i.e. agents reducing the cellular content in polyamines (α-difluoromethylornithine (DFMO), also named Eflornithin) have been reported to modulate cytoplasmic HuR levels (Zou et al., 2006, J. Biol. Chem., 281(28):19387-94). Therefore, a […], Eflornithine (DFMO) and a HIV protease inhibitor, lopinavir ((2S)-N-[(2S,4S,5S)-5-[[2-(2,6-dimethylphenoxy)acetyl]amino]-4-hydroxy-1,6-diphenylhexan-2-yl]-3-methyl-2-(2-oxo-1,3-diazinan-1-yl)butanamide) were tested as comparative examples ((comparative compounds C1 and C2, respectively)) for their ability to increase HuR cytoplasmic localization in melanoma (A375 and the MALME-3M cells (melanoma BRAF mutated sensitive cell lines) cell lines as follows and analysis was conducted by Western blot analysis as described in Example 1 [, except that the cells were treated with comparative compound C1 dissolved in DMSO at 5 mM or at 1 mM for 6 consecutive days, where fresh medium with C1 was added in 6 well plates every day and the cells were split every 3 days or the cells were treated with C2 at 15 μM dissolved in DMSO for 24 h. Cell fractionation was conducted using the NE-PER Nuclear and Cytoplasmic Extraction Reagents (ThermoFisher Scientific) according to the manufacturer's instructions. Nuclear (N) and cytoplasmic (C) fractions were analyzed for HuR expression by western blot as described above. […] As a comparison of successful increase in HuR cytoplasmic content, western blot analysis was performed on cells infected with aG or aH at m.o.i 5, 25 or 125 as described in Example1 (FIG. 8C).\n(§2) Western blot analysis was conducted as described in Examples 1 and 5, except that cells were treated with LiCl at 1 mM (for 6 h for A375 and for 24 h for MALME-3M cells) before cell lysis and analysis. […] Considering that HuR is mainly a nuclear protein, the absence of any nuclear contamination in the cytoplasm as observed here fulfils the experimental requirements. The increased cytoplasmic expression of HuR was quantified as being respectively 80% and 50% increased in A375 and Malme 3M melanoma cells using an image quantification software (ImageJ)."}, "HuR in MALME-3M cells": {"tested_on": "HuR in MALME-3M cells", "assay": "Western blot of nuclear and cytoplasmic fractions for HuR expression, MALME-3M", "format": "cell-based, human", "conditions": "for HuR cytoplasmic content: C1 5 mM or 1 mM for 6 days, C2 15 μM 24 h", "source_text": "as §1, §2"}, "[1]": {"tested_on": "HuR in A375 melanoma cells", "assay": "Whole cell extract western blot on HuR-expressing adenovirus-infected A375 cells", "conditions": "Li 1 mM and 10 mM", "method": "Western blot analysis was performed on cell extracts of A375 cells at 48 h post-infection. Whole cell lysates were prepared using RIPA (radioimmunoprecipitation assay) buffer (PBS (phosphate-buffered saline), 1% NP40 (nonyl phenoxypolyethoxylethanol 40), 0.1% sodium deoxycholate, 0.1% SDS (sodium dodecyl sulphate)) supplemented with fresh protease and phosphatase inhibitors (easy packs tablets, Roche). Cell lysates were quantified for protein content using Bio-Rad DC (detergent compatible) kit. Protein samples were resolved on 12.5% polyacrylamide Bis-Tris gel (Bio-rad) and then transferred to nitrocellulose membrane. After saturation, the membranes were incubated overnight with the anti-HuR mouse monoclonal antibody (Santa-Cruz/3A2-sc-5261, 1:1000) raised against full-length HuR of human origin. The secondary antibody conjugated to horseradish-peroxidase (Bio-Rad goat anti-mouse IgG-HRP, 1:3000) was incubated at room temperature for 30 minutes. Blots were developed using the ECL (enhanced chemiluminescent) system (Thermo-Scientific) according to the manufacturer's instructions."}, "[2]": {"tested_on": "BRAF-mutant colorectal patients", "conditions": "BRAF-mutant colorectal patients (Kopetz et al., 2010); cited from earlier work"}, "A375 cells": {"tested_on": "A375 cells", "assay": "WST-1 cell proliferation assay, vemurafenib dose response", "format": "cell-based", "conditions": "for proliferation rate increase (paradoxical proliferation): A375 cells, 48 h", "description": "The A375 BRAFV600E melanoma cell line was purchased from CLS Cell Lines Service GmbH (Cryovial: 300110). A375 cells were maintained at 37° C. and 5% CO2 in a humidified atmosphere and grown in DMEM (Dulbecco's modified Eagle's medium) growth media supplemented with 10% FBS (fetal bovine serum), 2 mM glutamine, 1% penicillin/streptomycin. Cells were verified to be mycoplasma-free (PanReac Applichem mycoplasma test kit). Cells were treated with the BRAF inhibitor, vemurafenib (Selleckchem), also known as N-[3-[5-(4-chlorophenyl)-1H-pyrrolo[2,3-b]pyridine-3-carbonyl]-2,4-difluorophenyl]propane-1-sulfonamide and dissolved in dimethyl sulphoxide (DMSO, 10 mM storing concentration).\nCell proliferation was measured using WST-1 reagent (Roche applied Science). Melanoma cells were plated (2500 cells per well) in 96-well tissue culture plates. After 24 h, the cells were treated with vemurafenib or DMSO (excipient) at the indicated concentrations in triplicate or quadruplicate. The excipient is used at the same dilution as the one necessary to get the desired concentration of vemurafenib, in that case for example if 1/1000 dilution is necessary to get a 100 nM final concentration of vemurafenib, then the DMSO pure stock solution will be also diluted to 1/1000. For the standard proliferation assays, after the treatment period of 48 h, WST-reagent (20 μl, 10% of the final volume) was added to the wells and incubated at 37° C. for 1 to 2 h depending on the experiment in order to stay within the linear range of the assay. The plates were read at 450(−650) nm on a Vmax kinetic ELISA Microplate Reader (Molecular Devices). Cell proliferation is expressed as percentage of the absorbance compared with the DMSO-treated cells. Proliferation assays for overexpression experiments were scheduled as follows: A375 cells were plated (800000 cells per well) in six-well culture plates. After 24 h, the cells were infected overnight at indicated m.o.i. […]"}}, "data": [{"smiles": "NCCC[C@](N)(C(=O)O)C(F)F", "note": "[C1, α-difluoromethylornithine]", "values": [{"measurement": "HuR cytoplasmic content", "setting": "HuR in A375 cells", "result": "no increase of HuR cytoplasmic content"}, {"measurement": "HuR cytoplasmic content", "setting": "HuR in MALME-3M cells; MALME-3M cells", "result": "no increase of HuR cytoplasmic content"}]}, {"smiles": "Cc1cccc(C)c1OCC(=O)N[C@@H](Cc1ccccc1)[C@@H](O)C[C@H](Cc1ccccc1)NC(=O)[C@H](C(C)C)N1CCCNC1=O", "note": "[C2, (2S)-N-[(2S,4S,5S)-5-[[2-(2,6-dimethylphenoxy)acetyl]amino]-4-hydroxy-1,6-diphenylhexan-2-yl]-3-methyl-2-(2-oxo-1,3-diazinan-1-yl)butanamide]", "values": [{"measurement": "HuR cytoplasmic content", "setting": "HuR in A375 cells", "result": "no increase of HuR cytoplasmic content"}, {"measurement": "HuR cytoplasmic content", "setting": "HuR in MALME-3M cells; MALME-3M cells", "result": "no increase of HuR cytoplasmic content"}]}, {"smiles": "[Cl-].[Li+]", "note": "[LiCl, Lithium Chloride]", "values": [{"measurement": "total amount of HuR expression and HuR cytoplasmic content", "setting": "HuR in A375 cells; LiCl 1 mM", "result": "increase of both total amount of HuR expression and HuR cytoplasmic content"}, {"measurement": "increased cytoplasmic expression of HuR (ImageJ quantification)", "setting": "HuR in A375 cells; LiCl 1 mM, 6 h", "result": 80, "unit": "%"}, {"measurement": "total amount of HuR expression and HuR cytoplasmic content", "setting": "HuR in MALME-3M cells; MALME-3M cells, LiCl 1 mM", "result": "increase of both total amount of HuR expression and HuR cytoplasmic content"}, {"measurement": "increased cytoplasmic expression of HuR (ImageJ quantification)", "setting": "HuR in MALME-3M cells; Malme 3M cells, LiCl 1 mM, 24 h", "result": 50, "unit": "%"}, {"measurement": "total amount of HuR expression (endogenous and exogenous epitope-tagged HuR)", "setting": "[1]", "result": "clearly increases the total amount of HuR expression with a dose effect"}]}, {"smiles": "CCCS(=O)(=O)Nc1ccc(F)c(C(=O)c2c[nH]c3ncc(-c4ccc(Cl)cc4)cc23)c1F", "note": "[vemurafenib, N-{3-[5-(4-chlorophenyl)-1H-pyrrolo[2,3-b]pyridine-3-carbonyl]-2,4-difluorophenyl}propane-1-sulfonamide]", "values": [{"measurement": "patients who respond", "setting": "[2]", "result": "~5", "unit": "%"}, {"measurement": "proliferation rate increase (paradoxical proliferation)", "setting": "A375 cells; 20 nM vemurafenib", "result": "up to 50%"}, {"measurement": "proliferation rate increase (paradoxical proliferation)", "setting": "A375 cells; 100 nM vemurafenib", "result": "up to 25%"}, {"measurement": "vemurafenib-induced paradoxical proliferation", "setting": "A375 cells; aH cells (HuR-overexpressing A375), in contrast to aG or non-infected cells", "result": "no vemurafenib-induced paradoxical proliferation was observed"}]}]}
